From patent US5262417A, “Antibacterial quinolone compounds” (The Upjohn Company, priority 1991, dated 1993) come the findings set out here.

Holding throughout (assay type): cell-based
Assay [1] deals with Escherichia coli UC 51 (EC). Kind of assay: Dip disk (disk-diffusion) assay, disks loaded with 0.05 ml. Particulars: 0.05 ml per disk; for zone of inhibition at 1 µg/mL / zone of inhibition at 0.1 µg/mL: Escherichia coli, UC51, read-out: Growth Inhibition zone, EC; for zone of inhibition at 1 µg/mL: 1.0 mcg/ml; for zone of inhibition at 0.1 µg/mL / Growth Inhibition Zone, EC: 0.1 mcg/ml. On the procedure:
(§1) The effectiveness of the subject compounds on bacteria were obtained by performing a dip disk assay. The antibacterial activity of the compounds was determined by the disk-diffusion method. Paper disks (12.7 mm) were loaded with 0.05 ml of drug solution prepared at a concentration of 0.1 mcg/ml; the disks were allowed to air dry. They were then applied to the surface of microorganism-seeded agar assay trays, which contained the bacterial strain Pseudomonas aeruginosa UC 95 (PA), Escherichia coli UC 51 (EC), Klebsiella pneumoniae UC 57 (KP), or Staphylococcus aureus UC 80 (SA). The assay trays were incubated overnight under aerobic condition to allow for the growth of the organisms. Zones of growth inhibition due to the action of the antibiotic were then measured to the nearest millimeter.
(§2) The effectiveness of additional compounds 5-9, (5-7 are Formula IAa compounds and 8 and 9 are Formula IAb compounds) on bacteria were obtained by performing a dip disk assay as described above. The antibacterial activity of the compounds was determined by the disk-diffusion method where the disks were loaded with 0.05 ml of drug solution prepared at a concentration of 1.0 mcg/ml; the disks were allowed to air dry.
For orientation: Agar diffusion results depend on both activity and mobility in agar.

In assay [2] the test system is Pseudomonas aeruginosa UC 95 (PA). The description is as above. The conditions noted are these: 0.05 ml per disk; for zone of inhibition at 1 µg/mL / zone of inhibition at 0.1 µg/mL: Pseudomonas aeruginosa, UC95, read-out: Growth Inhibition zone, PA; for zone of inhibition at 1 µg/mL: 1.0 mcg/ml; for zone of inhibition at 0.1 µg/mL / Growth Inhibition zone, PA: 0.1 mcg/ml. On the procedure: as §1, §2

Assay [3] deals with Staphylococcus aureus UC 80 (SA). The assay is described as above. The conditions noted are these: 0.05 ml per disk; for zone of inhibition at 1 µg/mL / zone of inhibition at 0.1 µg/mL: Staphylococcus aureus, UC80, read-out: Growth Inhibition zone, SA; for zone of inhibition at 1 µg/mL: 1.0 mcg/ml; for zone of inhibition at 0.1 µg/mL / Growth Inhibition Zone, SA: 0.1 mcg/ml. On the procedure:
as §1, §2

For assay [4], the system named is Klebsiella pneumoniae UC 57 (KP). The assay is described as above. Particulars: 0.05 ml per disk; for zone of inhibition at 1 µg/mL / zone of inhibition at 0.1 µg/mL: Klebsiella pneumoniae, UC57, read-out: Growth Inhibition zone, KP; for zone of inhibition at 1 µg/mL: 1.0 mcg/ml; for zone of inhibition at 0.1 µg/mL / Growth Inhibition zone, KP: 0.1 mcg/ml. On the procedure: as §1, with “Paper disks (12.7 mm) were loaded with 0.05 ml of drug solution prepared at a concentration of 0.1 mcg/ml; the disks were allowed to air dry.” left out, “millimeter. […]” for “millimeter.”

The subject of assay [5] is gram negative and positive. Kind of assay: Compound 10 compared to ciprofloxacin, overall activity. Particulars: compared with ciprofloxacin.
Assay [6] concerns Escherichia coli UC 51 (EC). As to the kind of experiment: Dipped disk (disk-diffusion) assay, disks loaded with 0.10 ml. The conditions noted are these: 0.10 ml per disk. On the procedure:
(§3) The effectiveness of the subject compounds on some bacteria were obtained by performing a dipped disk assay. The antibacterial activity of the compounds is determined by the disk-diffusion method. […] They were then applied to the surface of microorganism-seeded agar assay trays, which contained the bacterial strain Pseudomonas aeruginosa UC 95 )PA), Escherichia coli UC 51 (EC) or Staphylococcus aureus UC 80 (SA). The assay trays were incubated overnight under aerobic condition to allow for the growth of the organisms. Zones of growth inhibition due to the action of the antibiotic were then measured to the nearest millimeter.

The test system of assay [7] is Pseudomonas aeruginosa UC 95 (PA). The description is as above. The conditions noted are these: Conc 0.1 mg/ml, 0.10 ml per disk. On the procedure: as §3
Assay [8] relates to Staphylococcus aureus UC 80 (SA). The assay is described as above. The conditions noted are these: 0.10 ml per disk. On the procedure: as §3
Assay [9] has as its system Gram-positive and Gram-negative bacteria. As to the kind of experiment: Dipped disk assay, overall antibacterial activity (Formula IB). On the procedure: The effectiveness of the subject compounds on some bacteria were obtained by performing a dipped disk assay. The antibacterial activity of the compounds is determined by the disk-diffusion method. Paper disks (12.7 mm) were loaded with 0.10 ml of drug solution prepared at a concentration of 1 and 0.1 mcg/ml; the disks were allowed to air dry. They were then applied to the surface of microorganism-seeded agar assay trays, which contained the bacterial strain Pseudomonas aeruginosa UC 95 )PA), Escherichia coli UC 51 (EC) or Staphylococcus aureus UC 80 (SA). The assay trays were incubated overnight under aerobic condition to allow for the growth of the organisms. Zones of growth inhibition due to the action of the antibiotic were then measured to the nearest millimeter.

For the compound `COC(=O)/C=C(\C(=O)OC)N1CCN(c2c(F)cc3c(=O)c(C(=O)O)cn(C4CCC4)c3c2F)CC1` [Compound 6, 2-[4-(3-carboxy-1-cyclobutyl-6,8-difluuoro-1,4-dihydro-4-oxo-7-quinolinyl)-1-piperazinyl]-2-butenedioic acid (E)-1,4-dimethyl ester], the zone of inhibition at 1 µg/mL in assay [1] came to 24 mm; in assay [2], 16 mm; in assay [3], 22 mm; in assay [4], 26 mm.

In the case of `COC(=O)C/C=C(\C(=O)OC)N1CCN(c2c(F)cc3c(=O)c(C(=O)O)cn(C4CC4)c3c2F)CC1` [Compound 4, 2-[4-(3-carboxy-1-cyclopropyl-6,8-difluoro-1,4-dihydro-4-oxo-4-oxo-7-quinolinyl)-1-piperazineyl]-2-pentenedioic acid-(E)-1,5-dimethyl ester], the zone of inhibition at 0.1 µg/mL in assay [1] amounted to 27 mm; in assay [2], 33 mm; in assay [3], 28 mm; in [4], 33 mm.

Turning to `COC(=O)/C=C(\C(=O)OC)N1CCN(c2c(F)cc3c(=O)c(C(=O)O)cn(-c4ccc(F)cc4)c3c2F)CC1` [Compound 7], the zone of inhibition at 1 µg/mL in [1] was determined as 24 mm; in assay [2] it was 15 mm; in [3] it was 22 mm; in assay [4], 26 mm.

Consider `COC(=O)/C=C(\C(=O)OC)N1CCN(c2c(F)c(N)c3c(=O)c(C(=O)O)cn(C4CC4)c3c2F)CC1` [Compound 5, 2-[4-(5-amino-3-carboxy-1-cyclopropyl-6,8-difluoro-1,4-dihydro-4-oxo-7-quinolinyl)-1-piperazinyl]-2-butenedioic acid, (E)-1,4-dimethyl ester], for which the zone of inhibition at 1 µg/mL in [1] worked out at 24 mm; in assay [2], 27 mm; in assay [3], 27 mm; in assay [4], 28 mm.

On to `COC(=O)/C=C(\C)NC1CCN(c2c(F)cc3c(=O)c(C(=O)O)cn(C4CC4)c3c2F)C1` (stereo not shown) [Compound 9, 2-[4-(3-carboxy-1-cyclopropyl-6,8-difluoro-1,4-dihydro-4-oxo-7-quinolinyl)-1-(3-aminopyrrolidinyl)]-3-butenoic acid-(E)-1-methyl ester], for which the zone of inhibition at 1 µg/mL in assay [1] worked out at 24 mm; in assay [2] it was 32 mm; in assay [3] it was 23 mm; in assay [4] it was 26 mm.

In the case of `COC(=O)/C=C(/NC1CCN(c2c(F)cc3c(=O)c(C(=O)O)cn(C4CC4)c3c2F)C1)C(=O)OC` (stereo not shown) [Compound 10, 2-[4-(3-carboxy-1-cyclopropyl-6,8-difluoro-1,4-dihydro-4-oxo-7-quinolinyl)-1-(3-aminopyrrolidinyl)]-2-butenedioic acid-(E)-1,4-dimethyl ester], the “gram negative and positive activity (in words)” value in assay [5] was “gram negative and positive activity greatly increased over that of ciprofloxacin”.

In the case of `COC(=O)C=C(C(=O)OC)N1CCN(c2cc3c(cc2F)c(=O)c(C(=O)O)cn3C2CC2)CC1` [Compound 3, 2-[4-(1-Cyclopropyl-3-carboxy-6-fluoro-1,4-dihydro-4-oxo-7-quinolinyl)-1-piperazinyl]2-butenedioic acid, dimethyl ester], the zone of inhibition at 0.1 µg/mL in assay [1] amounted to 29 mm; in assay [2], 36 mm; in assay [3] it was 25 mm; in assay [4], 29 mm.

As for “2-[4-(1-Cyclopropyl-3-carboxy-6,8-difluoro-1,4-dihydro-4-oxo-7-quinolinyl)-1-piperazinyl]2-butenedioic acid, dimethyl ester [Compound 1]”, the “Growth Inhibition Zone, EC” value in [1] amounted to 31 millimeter; in assay [6] (Conc 0.1 mg/ml), 30 mm; in assay [6] (Conc 1 mg/ml), 35 mm. Besides, the “Growth Inhibition zone, PA” value in assay [2] is 36 millimeter; in assay [7], 35 mm. The “Growth Inhibition Zone, SA” value came out at 27 millimeter in assay [3], 25 mm in assay [8] (Conc 0.1 mg/ml) and 28 mm in [8] (Conc 1 mg/ml). Also, the “Growth Inhibition zone, KP” value in assay [4] is 31 millimeter. For the same compound, the “gram negative and positive activity (in words)” value in assay [9] was “potent gram negative and positive activity as compared to the commercially available antibacterial Ciprofloxacin”.

Consider `COC(=O)/C=C(/NC1CCN(c2c(F)cc3c(=O)c(C(=O)O)cn(-c4ccc(F)cc4F)c3c2F)C1)C(=O)OC` (stereo not shown) [Compound 8, 2-[4-(3-carboxy-1-benzene(2,4-difluoro)-1,4-dihydro-4-oxo-7-quinolinyl)-1-(3-aminopyrrolidinyl)]-2-butenedioic acid, (E)-1,4-dimethyl ester], for which the zone of inhibition at 1 µg/mL in assay [1] is 30 mm; in assay [2], 28 mm; in assay [3], 32 mm; in assay [4] it was 34 mm.

As to “2-[4-(1-Ethyl-3-carboxy-6-fluoro-1,4-dihydro-4-oxo-7-quinolinyl)-1-piperizinyl]2-butanedioic acid, dimethyl ester [Compound 2]”, the “Growth Inhibition Zone, EC” value in assay [1] stood at 23 millimeter; in [6] (Conc 0.1 mg/ml) it was 30 mm; in assay [6] (Conc 1 mg/ml) it was 30 mm. Further, the “Growth Inhibition zone, PA” value turned out to be 25 millimeter in assay [2] and 35 mm in assay [7]. The “Growth Inhibition Zone, SA” value was 21 millimeter in assay [3], 25 mm in assay [8] (Conc 0.1 mg/ml) and 28 mm in assay [8] (Conc 1 mg/ml). Moreover, in [4], the “Growth Inhibition zone, KP” value is recorded as 25 millimeter. The “gram negative and positive activity (in words)” value in [9] was “potent gram negative and positive activity as compared to the commercially available antibacterial Ciprofloxacin”.
